According to patent US20120077735A1, “PROPHYLACTIC AGENT FOR RENAL FAILURE” (priority 2007, published 2012):

Columns and labels:
male Wistar rats [1] = assay: Test 1: frequency of occurrence of renal glomerular lesions in rats given L-NAME; assay type: in vivo, rat; settings: drinking water with L-NAME 1 g/L plus VPP 0.3 g/L or Enalapril 0.5 mg/L, ad libitum for eight weeks; compared with L-NAME alone; FIG. 2
Method: (§1) In order to evaluate the effect of the tripeptide Val Pro Pro (VPP) to suppress kidney glomerular disease and renal arteriosclerosis, a test on the frequency of occurrence of renal glomerular lesions and the degree of thickening of the small and middle renal artrey wall was carried out.
(§2) The test was carried out using three groups of male Wistar rats of seven weeks old (Japan SLC, Inc.), each of which group consist of 9 to 12 rats. […] The dose of Enalapril was determined such that its activity to inhibit ACE was equivalent to VPP's. […]
Under a microscopic observation, the glomerulus that atrophic lesions, deterioration of the glomerulus, glomerulosclerosis, alteration of Bowman's capsule or the like was observed was defined as the glomerulus with lesions, in accordance with the definition of the glomerular lesions described in a book by Enomoto et al. (edited by Makoto Enomoto, Yuzo Hayashi, and Hisako Tanaka, “Pathological tissues of experimental animals”, Softscience, pages 380-396). […] In one whole section, the frequency of occurrence of these glomerular lesions was scored from 0 to 3, and a score was determined for each individual rat. The thus determined score for each individual rat was subjected to statistical analysis and a score for each group was determined. […]

male Wistar rats [2] = assay: Test 2: rat renal pathologic state (glomerular lesions, renal artery wall at the hilum and small- and mid-sized artery wall thickening) in rats given L-NAME; assay type: in vivo; settings: drinking water with L-NAME 1 g/L plus IPP 0.3 g/L or Enalapril 0.5 mg/L, eight weeks; for With pathologic state / Without pathologic state: pathologic state = score not less than 1 in all three items
Method: The tripeptide Ile Pro Pro (IPP) was also tested for renal pathologic state, in order to evaluate its effect to suppress kidney glomerular disease and renal arteriosclerosis.
The test was carried out using three groups of male Wistar rats of seven weeks old (Japan SLC, Inc.), each of which group consist of 9 to 12 rats. After habituation breeding for a week, drinking water with L-NAME (manufactured by Sigma) being dissolved at a concentration of 1 g/L; drinking water with L-NAME and IPP being dissolved at a concentration of 1 g/L and 0.3 g/L respectively; drinking water with L-NAME and angiotensin converting enzyme (ACE) inhibitor, Enalapril at a concentration of 1 g/L and 0.5 mg/L respectively, were supplied ad libitum for eight weeks. The dose of Enalapril was determined such that its activity to inhibit ACE was equivalent to the activity of IPP to inhibit ACE.
The rats were sacrificed by exsanguination under diethylether anesthesia. The kidney was enucleated and then fixed with 10% neutral buffered formalin solution. Tissue samples were prepared from the fixed kidney by excising in parallel with the minor axis such that the tip of renal papilla was included. The specimen were embedded in paraffin and cut into thin sections with a thickness of 2.0 to 2.5 μm using a microtome. Two to five sections per rat were prepared. The thin sliced sections were subjected to hematoxylin eosin staining or periodic acid methenamine silver staining (PAM staining). In accordance with a method by Foglieni et al. (Chiara Foglieni, et al., “Protective effect of EDTA preadministration on renal ischemia” BMC Nephrology 2006, 7:5, [online], Mar. 15, 2006, BioMed Central Ltd, http://www.biomedcentral.com/bmcnephrol/), a histopathological examination was, with keeping the name of each sample concealed, carried out by a pathologist who was not involved in the test.
Under a microscopic observation, the glomerulus that atrophic lesions, deterioration of the glomerulus, glomerulosclerosis, alteration of Bowman's capsule or the like was observed was defined as the glomerulus with lesions, in accordance with the definition of the glomerular lesions described in a book by Enomoto et al. (edited by Makoto Enomoto, Yuzo Hayashi, and Hisako Tanaka, “Pathological tissues of experimental animals”, Softscience, pages 380-396). The atrophic lesion refers to conditions where the size ratio between the glomerulus and Bowman's capsule is altered due to glomerular atrophy. The deterioration of the glomerulus refers to conditions where the blood capillary cavity of the glomerulus is disappeared and glomerular functions are lost. The glomerulosclerosis refers to conditions where increased mesangial matrix was observed without accompanying hyperplasia of collagen fiber. The alteration of Bowman's capsule refers to conditions where hypertrophy of epithelial cells and uptake of lipid droplets and/or protein particles are observed. In one whole section, the frequency of occurrence of these glomerular lesions was scored from 0 to 3, and a score was determined for each individual rat.
Score 0: A case where one or two glomerular lesions owing to physiologic alterations were observed.
Score 1: A case where one or two focal regions in the glomerulus were observed, which regions were a limited and small range.
Score 2: A case where two to four focal regions in the glomerulus were observed, which regions were a middle sized range.
The focal regions herein indicate that a plural of lesions are, on the basis of pathological findings, observed in a certain area in one whole section.
The thickening of the renal artery wall at the hilum existing in the renal medulla and the thickening of the small and middle artery wall existing in the renal cortex were also evaluated by a tissue pathological test in the same manner as the observation of the glomerular lesions. […]

male Wistar rats [3] = assay: Test 1: thickening of the small- and mid-sized renal artery wall in rats given L-NAME; assay type: in vivo, rat; settings: drinking water with L-NAME 1 g/L plus VPP 0.3 g/L or Enalapril 0.5 mg/L, ad libitum for eight weeks; compared with L-NAME alone; FIG. 1
Method: as §1, §2
The thickening of the small-, and mid -sized artery wall existing in the renal cortex was also evaluated by a tissue pathological test in the same manner as the observation of the glomerular lesions. […] The thickness of the small- and mid-sized artery wall was scored from 0 to 3 as described below and a score for each individual rat was determined. The determined score for each individual rat was subjected to statistical analysis and a score for each group was determined. […]

| Compound | frequency of occurrence of the glomerular lesions (score 0 to 3) (male Wistar rats [1]) | onset of the pathologic state of the glomerulus and the renal artery (result in words) (male Wistar rats [2]) | With pathologic state (male Wistar rats [2]) [rats] | Without pathologic state (male Wistar rats [2]) [rats] | degree of thickening of the small- and mid-sized artery wall (score 0 to 3) (male Wistar rats [3]) |
| --- | --- | --- | --- | --- | --- |
| CCOC(=O)[C@H](CCc1ccccc1)N[C@@H](C)C(=O)N1CCC[C@H]1C(=O)O [Enalapril] | did not show the suppressive effect | did not exhibit such an effect | 2 | 7 | did not show the suppressive effect |
| Ile Pro Pro [IPP] | – | suppressed the onset of the pathologic state | 0 | 9 | – |
| Val Pro Pro [VPP] | suppression of the frequency of occurrence of the glomerular lesions | – | – | – | decrease in the degree of thickening |
